Data from article PMC9051119 (RSC Advances, 2020).

Assays:
[1] = Equilibrium solubility in model lipid-based formulations; conditions: for Miscibility in LC-SEDDS (LCF) / Solubility in LC-SEDDS: long chain SEDDS; for Miscibility in LC-SEDDS (LCF) / Miscibility in MC-SEDDS (MCF): result in words
[2] = Long term storage stability; conditions: >6 months at −20 °C
[3] = ref unpublished data, cited from earlier work
[4] = weakly basic APIs; cited from earlier work

Structure (SMILES): C(=C\c1ccccc1)/CN1CCN(C(c2ccccc2)c2ccccc2)CC1 [Compound 1d, cinnarizine]
- Miscibility in LC-SEDDS (LCF) [1]: miscible
- Miscibility in MC-SEDDS (MCF) ([1]; medium chain SEDDS): miscible

Structure (SMILES): C(=C\c1ccccc1)/CN1CCN(C(c2ccccc2)c2ccccc2)CC1 [Compound 1i, cinnarizine]
- Miscibility in MC-SEDDS (MCF) ([1]; medium chain SEDDS): miscible

Structure (SMILES): C(=C\c1ccccc1)/CN1CCN(C(c2ccccc2)c2ccccc2)CC1 [Compound 1g, cinnarizine]
- Solubility in LC-SEDDS ([1]; value of the main text): 17 mg/g

Structure (SMILES): CCCCN(CCCC)CC(O)c1cc(Cl)cc2c1-c1ccc(Cl)cc1/C2=C/c1ccc(Cl)cc1 (stereo not shown) [Compound 2k, lumefantrine]
- Solubility in LC-SEDDS ([1]; value of the main text): 53 mg/g
- Solubility in MC-SEDDS ([1]; medium chain SEDDS, value of the main text): 66 mg/g

Structure (SMILES): C(=C\c1ccccc1)/CN1CCN(C(c2ccccc2)c2ccccc2)CC1 [Compound 1h, cinnarizine]
- Crystallization after long term storage [2]: showed signs of crystallization

Structure (SMILES): C(=C\c1ccccc1)/CN1CCN(C(c2ccccc2)c2ccccc2)CC1 [Compound 1c, cinnarizine]
- Miscibility in MC-SEDDS (MCF) ([1]; medium chain SEDDS): miscible

Structure (SMILES): C(=C\c1ccccc1)/CN1CCN(C(c2ccccc2)c2ccccc2)CC1 [Compound 1b, cinnarizine]
- Miscibility in MC-SEDDS (MCF) ([1]; medium chain SEDDS): miscible

Structure (SMILES): C(=Cc1ccccc1)CN1CCN(C(c2ccccc2)c2ccccc2)CC1.CCCCC(CC)COC(=O)CC(C(=O)OCC(CC)CCCC)S(=O)(=O)O [Cinnarizine docusate]
- Miscibility in LC-SEDDS ([3]; long chain SEDDS): miscible
- Miscibility in MC-SEDDS ([3]; medium chain SEDDS): miscible

Structure (SMILES): CCCCN(CCCC)CC(O)c1cc(Cl)cc2c1-c1ccc(Cl)cc1/C2=C/c1ccc(Cl)cc1 (stereo not shown) [Compound 2, lumefantrine]
- pKa [4]: > 8

Structure (SMILES): C(=C\c1ccccc1)/CN1CCN(C(c2ccccc2)c2ccccc2)CC1 [Compound 1j, cinnarizine]
- Miscibility in MC-SEDDS (MCF) ([1]; medium chain SEDDS): miscible

Structure (SMILES): C(=C\c1ccccc1)/CN1CCN(C(c2ccccc2)c2ccccc2)CC1 [Compound 1k, cinnarizine]
- Miscibility in LC-SEDDS (LCF) [1]: miscible
- Miscibility in MC-SEDDS (MCF) ([1]; medium chain SEDDS): miscible

Structure (SMILES): C(=C\c1ccccc1)/CN1CCN(C(c2ccccc2)c2ccccc2)CC1 [Compound 1, cinnarizine]
- pKa [4]: > 8

Structure (SMILES): CCCCN(CCCC)CC(O)c1cc(Cl)cc2c1-c1ccc(Cl)cc1/C2=C/c1ccc(Cl)cc1 (stereo not shown) [Compound 2h, lumefantrine]
- LBF solubility enhancement compared to the free base ([1]; compared to the free base form): up to 18 fold
- Miscibility in LC-SEDDS (LCF) [1]: miscible
- Miscibility in MC-SEDDS (MCF) ([1]; medium chain SEDDS): miscible
